Reference: patent US11926619B2, “Certain pladienolide compounds and methods of use” (EISAI R&D MANAGEMENT CO., LTD., priority 2018, dated 2024)

Assays:
[1] = system: WiDr cells (colon cancer cells; wildtype SF3B1); test: Cell viability assay (CellTiter-Glo, 72 hr), WiDr cells; type: cell-based; details: Homo sapiens; WiDr cells (wildtype SF3B1); read-out: WiDr GI50
How it was run: (§1)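 Cells at 2000/well were exposed to 9 compound concentrations (0.1% DMSO) in duplicate or triplicate for 72 hr at 37 °C. ATP was read by CellTiter-Glo against a time-zero plate and DMSO control growth. Percent growth/viability was plotted against concentration to give Emax; negative values indicate lethality.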

[2] = system: WiDr-R cells (colon cancer cells; chemically-induced SF3B1 R1074H mutant); test: Cell viability assay (CellTiter-Glo, 72 hr), resistant WiDr-R cells (counter-screen); type: cell-based; details: WiDr-R cells (SF3B1 R1074H mutation, resistant); read-out: WiDr-R GI50
How it was run: as §1

[3] = system: Panc 05.04 cells (pancreatic cancer cells; Q699H and K700E mutations in SF3B1); test: Cell viability assay (CellTiter-Glo, 72 hr), Panc 05.04 cells; type: cell-based; details: Panc 05.04 cells (mutant SF3B1); for Emax: maximum achievable response in tested dose range, negative value = cellular lethality, read-out: Panc 05.04 (mt SF3B1 cells) Emax (%); for GI50: read-out: Panc 05.04 (mt SF3B1 cells), GI50
How it was run: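 Viability was read as ATP content (CellTiter-Glo) after 72 hr compound exposure of Panc 05.04 cells at 37 °C, nine concentrations, 0.1% DMSO. Percentage growth was referenced to time-zero and vehicle wells and plotted against concentration to obtain Emax; negative Emax denotes cell killing.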

[4] = molecular target: T1, SF3b complexes (Homo sapiens, UniProt O75533+Q7RTV0); test: Scintillation proximity assay (SPA) with [3H]-labelled pladienolide probe; type: binding; details: wt SF3B1, read-out: SPA (wt SF3B1 cells) IC50
T1 construct: endogenous in cells
Method: Batch immobilization of anti-SF3B1 antibody (MBL) to anti-mouse PVT SPA scintillation beads (PerkinElmer) was prepared as follows: for every 2.5 mg of nuclear extracts, 5 μg anti-SF3B1 antibody and 1.5 mg of beads were mixed in 150 μl PBS. The antibody-bead mixture was incubated for 30 min at RT and centrifuged at 18,000 g for 5 min. 150 μl PBS was used to resuspend every 1.5 mg antibody-bead mixture. The beads were suspended and added to the prepared nuclear extracts. The slurry was incubated for 2 h at 4° C. with gentle mixing. The beads were then collected by centrifuging at 18,000 g for 5 min, and washed twice with PBS+0.1% Triton X-100. After a final centrifugation step, every 1.5 mg of beads was suspended with 150 μl of PBS. The SF3b complexes were tested for [^3H]-labelled pladienolide probe binding ([^3H]-PB), synthesized as previously described (Kotake et al., 2007). 100 μL binding reactions were prepared with 50 μl bead slurry and by adding varying concentrations of PB or PB—OH, and after 30 min pre-incubation, 2.5 nM [^3H]—PB was added. The mixture was incubated for 30 min, and luminescence signals were read using a MicroBeta2 Plate Counter (PerkinElmer). Prism 6 (Graphpad) was used for non-linear regression curve fitting of the data.

C/C(=C\C=C\C(C)c1cc(C)ccn1)[C@H]1OC(=O)C[C@H](O)CC[C@@](C)(O)[C@@H](OC(=O)N2CCN(C3CCCCCC3)CC2)/C=C/[C@@H]1C (stereo partly shown)
GI50 [1]: 0.0587 µM
GI50 [2]: > 1 µM
Emax [3]: -92.4%
GI50 [3]: 0.0599 µM
IC50 [4]: 0.00679 µM

C/C(=C\C=C\C(C)c1ccncc1)[C@H]1OC(=O)C[C@H](O)CC[C@@](C)(O)[C@@H](OC(=O)N2CCN(C3CCCCCC3)CC2)/C=C/[C@@H]1C (stereo partly shown)
GI50 [1]: 0.014 µM
GI50 [2]: > 1 µM
Emax [3]: -95.1%
GI50 [3]: 0.00663 µM
IC50 [4]: 0.00274 µM

C/C(=C\C=C\[C@H](C)c1cccnc1)[C@H]1OC(=O)C[C@H](O)CC[C@@](C)(O)[C@@H](OC(=O)N2CCN(C3CCCCCC3)CC2)/C=C/[C@@H]1C
GI50 [1]: 0.0294 µM
GI50 [2]: > 1 µM
Emax [3]: -94.2%
GI50 [3]: 0.0204 µM
IC50 [4]: 0.00256 µM

C/C(=C\C=C\[C@@H](C)c1ccccn1)[C@H]1OC(=O)C[C@H](O)CC[C@@](C)(O)[C@@H](OC(=O)N2CCN(C3CCCC3)CC2)/C=C/[C@@H]1C
GI50 [1]: 0.0196 µM
GI50 [2]: > 1 µM
Emax [3]: -89.5%
GI50 [3]: 0.0279 µM
IC50 [4]: 0.00876 µM

C/C(=C\C=C\[C@@H](C)c1ccccn1)[C@H]1OC(=O)C[C@H](O)CC[C@@](C)(O)[C@@H](OC(=O)N2CCN(C3CCC3)CC2)/C=C/[C@@H]1C
GI50 [1]: 0.0367 µM
GI50 [2]: > 1 µM
Emax [3]: -83.6%
GI50 [3]: 0.0389 µM
IC50 [4]: 0.00723 µM

CC(=O)O[C@H]1/C=C/[C@H](C)[C@@H](/C(C)=C/C=C/[C@H](C)c2ccccn2)OC(=O)C[C@H](O)CC[C@@]1(C)O
GI50 [1]: 0.205 µM
GI50 [2]: > 10 µM
Emax [3]: 1.96%
GI50 [3]: 0.546 µM
IC50 [4]: 0.235 µM

CC(=O)O[C@H]1/C=C/[C@H](C)[C@@H](/C(C)=C/C=C/[C@@H](C)CO)OC(=O)C[C@H](O)CC[C@@]1(C)O
GI50 [1]: 4.04 µM
GI50 [2]: > 10 µM
Emax [3]: 47.5%
GI50 [3]: 6.92 µM
IC50 [4]: 0.326 µM

C/C(=C\C=C/[C@@H](C)COC(=O)N1CC[C@@H](O)C1)[C@H]1OC(=O)C[C@H](O)CC[C@H](C)[C@@H](OC(=O)N2CCN(C)CC2)/C=C/[C@@H]1C
GI50 [1]: 0.00451 µM
GI50 [2]: > 1 µM
Emax [3]: -90.4%
GI50 [3]: 0.00667 µM
IC50 [4]: 0.00215 µM

C/C(=C\C=C\[C@@H](C)Cn1cc(C2CC2)nn1)[C@H]1OC(=O)C[C@H](O)CC[C@@](C)(O)[C@@H](OC(=O)N2CCN(C3CCCCCC3)CC2)/C=C/[C@@H]1C
GI50 [1]: 0.0518 µM
GI50 [2]: > 1 µM
Emax [3]: -94.5%
GI50 [3]: 0.0386 µM
IC50 [4]: 0.0141 µM

C/C(=C\C=C\[C@@H](C)c1ccccn1)[C@H]1OC(=O)C[C@H](O)CC[C@@](C)(O)[C@@H](OC(=O)N2CCOCC2)/C=C/[C@@H]1C
GI50 [1]: > 1 µM
GI50 [2]: > 1 µM
Emax [3]: 35.3%
GI50 [3]: 2.55 µM
IC50 [4]: 0.48 µM

C/C(=C\C=C\[C@@H](C)COC(=O)N1CCC[C@H]1CO)[C@H]1OC(=O)C[C@H](O)CC[C@@](C)(O)[C@@H](OC(=O)N2CCN(C)CC2)/C=C/[C@@H]1C
GI50 [1]: 0.0294 µM
GI50 [2]: > 1 µM
Emax [3]: -77.2%
GI50 [3]: 0.0203 µM
IC50 [4]: 0.014 µM

C/C(=C\C=C\[C@@H](C)COC(=O)N1CCCC1)[C@H]1OC(=O)CCCCC[C@@H](NC(=O)N2CCN(C)CC2)/C=C/[C@@H]1C
GI50 [1]: 0.0185 µM
GI50 [2]: > 1 µM
Emax [3]: -93.6%
GI50 [3]: 0.019 µM
IC50 [4]: 0.0144 µM

CC(=O)O[C@H]1/C=C/[C@H](C)[C@@H](/C(C)=C/C=C/[C@@H](C)COC(=O)N2CCCC2)OC(=O)C[C@H](O)CC[C@@]1(C)O
GI50 [1]: 0.00483 µM
GI50 [2]: > 1 µM
Emax [3]: -94.1%
GI50 [3]: 0.0201 µM
IC50 [4]: 0.00275 µM

C/C(=C\C=C\[C@@H](C)c1ncccn1)[C@H]1OC(=O)C[C@H](O)CC[C@@](C)(O)[C@@H](OC(=O)N2CCN(C3CCCCCC3)CC2)/C=C/[C@@H]1C
GI50 [1]: 0.0336 µM
GI50 [2]: > 1 µM
Emax [3]: -92.9%
GI50 [3]: 0.0295 µM
IC50 [4]: 0.0081 µM

CC[C@H](O)[C@@H](C)NC(=O)OC[C@H](C)/C=C/C=C(\C)[C@H]1OC(=O)C[C@H](O)CC[C@@](C)(O)[C@@H](OC(C)=O)/C=C/[C@@H]1C
GI50 [1]: 0.555 µM
GI50 [2]: > 10 µM
Emax [3]: -92.8%
GI50 [3]: 0.327 µM
IC50 [4]: 0.0534 µM

C/C(=C\C=C\[C@@H](C)COC(=O)N1CCC[C@H]1CO)[C@H]1OC(=O)CCCC[C@@](C)(O)[C@@H](OC(=O)N2CCN(C)CC2)/C=C/[C@@H]1C
GI50 [1]: 0.00174 µM
GI50 [2]: > 1 µM
Emax [3]: -72.3%
GI50 [3]: 0.00207 µM
IC50 [4]: 0.00254 µM

C/C(=C\C=C\[C@@H](C)c1ccccn1)[C@H]1OC(=O)C[C@H](O)CC[C@@](C)(O)[C@@H](OC(=O)N2CC3(C2)CN(C2CCCCCC2)C3)/C=C/[C@@H]1C
GI50 [1]: 0.13 µM
GI50 [2]: > 1 µM
Emax [3]: -41.9%
GI50 [3]: 0.115 µM
IC50 [4]: 0.0713 µM

COC(=O)CC[C@H](C)/C=C/C=C(\C)[C@H]1OC(=O)C[C@H](O)CC[C@@](C)(O)[C@@H](OC(=O)N2CCN(C3CCCCCC3)CC2)/C=C/[C@@H]1C
GI50 [1]: 0.103 µM
GI50 [2]: > 1 µM
Emax [3]: -96.9%
GI50 [3]: 0.0513 µM
IC50 [4]: 0.00454 µM

C/C(=C\C=C\[C@@H](C)c1ccccn1)[C@H]1OC(=O)C[C@H](O)CC[C@@](C)(O)[C@@H](OC(=O)N2CCCN(C3CCCCCC3)CC2)/C=C/[C@@H]1C
GI50 [1]: 0.0749 µM
GI50 [2]: > 1 µM
Emax [3]: -12.7%
GI50 [3]: 0.104 µM
IC50 [4]: 0.00732 µM

C/C(=C\C=C\C(C)(C)COC(=O)N1CCCC1)[C@H]1OC(=O)C[C@H](O)CC[C@@](C)(O)[C@@H](OC(=O)N2CCN(C3CCCCCC3)CC2)/C=C/[C@@H]1C
GI50 [1]: 0.00346 µM
GI50 [2]: 0.221 µM
Emax [3]: -79.7%
GI50 [3]: 0.00443 µM
IC50 [4]: 0.00514 µM

C/C(=C\C=C\[C@@H](C)COC(=O)N1CCCC12COC2)[C@H]1OC(=O)C[C@H](O)CC[C@@](C)(O)[C@@H](OC(=O)N2CCN(C)CC2)/C=C/[C@@H]1C
GI50 [1]: 0.0472 µM
GI50 [2]: > 1 µM
Emax [3]: 90.7%
GI50 [3]: 0.0315 µM
IC50 [4]: 0.00956 µM

C/C(=C\C=C\C(C)c1ccncn1)[C@H]1OC(=O)C[C@H](O)CC[C@@](C)(O)[C@@H](OC(=O)N2CCN(C3CCCCCC3)CC2)/C=C/[C@@H]1C (stereo partly shown)
GI50 [1]: 0.532 µM
GI50 [2]: > 1 µM
Emax [3]: -26.6%
GI50 [3]: 0.956 µM
IC50 [4]: 0.504 µM

C/C(=C\C=C\[C@H](C)c1ccccn1)[C@H]1OC(=O)C[C@H](O)CC[C@@](C)(O)[C@@H](OC(=O)N2CCN(C)CC2)/C=C/[C@@H]1C
GI50 [1]: 0.0343 µM
GI50 [2]: > 1 µM
Emax [3]: -49.2%
GI50 [3]: 0.0536 µM
IC50 [4]: 0.00569 µM

C/C(=C\C=C\[C@@H](C)CNC(=O)N1CCCC1)[C@H]1OC(=O)C[C@H](O)CC[C@@](C)(O)[C@@H](OC(=O)N2CCN(C3CCCCCC3)CC2)/C=C/[C@@H]1C
GI50 [1]: 0.0276 µM
GI50 [2]: > 1 µM
Emax [3]: -90.9%
GI50 [3]: 0.0198 µM
IC50 [4]: 0.00524 µM

C/C(=C\C=C\[C@@H](C)c1ccccn1)[C@H]1OC(=O)C[C@H](O)CC[C@@](C)(O)[C@@H](OC(=O)N2CCN(C3CCCCC3)CC2)/C=C/[C@@H]1C
GI50 [1]: 0.0212 µM
GI50 [2]: > 1 µM
Emax [3]: -94.3%
GI50 [3]: 0.0214 µM
IC50 [4]: 0.00332 µM

C/C(=C\C=C\C(C)c1ncccc1C)[C@H]1OC(=O)C[C@H](O)CC[C@@](C)(O)[C@@H](OC(=O)N2CCN(C3CCCCCC3)CC2)/C=C/[C@@H]1C (stereo partly shown)
GI50 [1]: 0.0158 µM
GI50 [2]: > 1 µM
Emax [3]: -92.3%
GI50 [3]: 0.0212 µM
IC50 [4]: 0.00626 µM

C/C(=C\C=C\[C@@H](C)COC(=O)N1CCC[C@H]1CO)[C@H]1OC(=O)CCCCC[C@@H](OC(=O)N2CCN(C)CC2)/C=C/[C@@H]1C
GI50 [1]: 0.00252 µM
GI50 [2]: 0.423 µM
Emax [3]: -62.8%
GI50 [3]: 0.0029 µM
IC50 [4]: 0.00361 µM

C/C(=C\C=C\[C@@H](C)COC(=O)N1CCC[C@H]1CO)[C@H]1OC(=O)C[C@H](O)CC[C@@](C)(O)[C@@H](OC(=O)N2CCN(C3CCCCCC3)CC2)/C=C/[C@@H]1C
GI50 [1]: 0.00274 µM
GI50 [2]: 0.0401 µM
Emax [3]: -70.4%
GI50 [3]: 0.00239 µM
IC50 [4]: 0.00703 µM

C/C(=C\C=C\[C@@H](C)c1ccccn1)[C@H]1OC(=O)C[C@H](O)CC[C@H](C)[C@@H](OC(=O)N2CCN(C)CC2)/C=C/[C@@H]1C
GI50 [1]: 0.0153 µM
GI50 [2]: > 10 µM
Emax [3]: -94.3%
GI50 [3]: 0.00807 µM
IC50 [4]: 0.00378 µM
